{"source": "patent US20050255076A1", "about": "“Therapeutic cream for dermatitis” (priority 2004, published 2005)", "origin": "cited, not measured here", "details": "in alcohol and in water"}
{"smiles": "C[S+](C)[O-]", "note": "[Dimethyl sulfoxide]", "values": [{"measurement": "Properties: solubility", "value": "Soluble in alcohol and water"}]}
